Measurements reported in US20220177968A1, “METHODS FOR DETECTING OR REDUCING THE INCIDENCE OF ADVERSE DRUG REACTIONS” (CHANG GUNG MEMORIAL HOSPITAL, LINKOU, priority 2019, published 2022).
“And” between values parts separate entries of the source, which are not always exact repeats. Identical values can stand only once.

Experiments:
[1] = test system: European descent patients with CBZ-induced SJS/TEN; experiment: HLA-A/B allele association with CBZ-induced SJS/TEN (case-control, sequence-based HLA typing); format: in vivo, human; details: for OR (95% CI) / Odds ratio (95% CI): CBZ-SJS/TEN cases vs European general population; for SJS/TEN N (%), allele carriers among cases / SCAR case N (%), allele carriers among cases: CBZ-SJS/TEN patients of European descent
Excerpt: (§1) A total of 28 patients of European descent with CBZ-SJS/TEN were enrolled in this study. SJS/TEN is characterized by a rapidly developing exanthema of purpuric macules and target-like lesions with skin detachment accompanied by hemorrhagic-erosive mucosal involvement. Skin detachment in SJS patients affects less than 10% of body surface area (BSA), while TEN patients have skin detachment greater than 30% of BSA. Detachment of 10-30% is defined as SJS/TEN-overlap, reflecting a continuum of severity variants of one disease entity. Patients with CBZ-DRESS were also enrolled for comparison. HLA-A and HLA-B genotypes of patients with CBZ-SJS/TEN were determined by SeCore HLA sequence-based typing (Invitrogen, Life Technologies, USA). Furthermore, the HLA genotypes for patients with CBZ-DRESS and general population (the control group) were also determined. Statistical analyses were performed using SPSS 21.0 (IBM, Armonk, N.Y.). Comparisons of genotype frequencies between groups were performed using Fisher exact tests. Differences were considered statistically significant at p-values of less than 0.05.

[2] = test system: patients with CBZ-DRESS, European descent; experiment: HLA allele association with CBZ-induced DRESS (case-control, HLA typing); format: in vivo, human; details: for Odds ratio (95% CI): CBZ-DRESS cases vs European general population; for SCAR case N (%), allele carriers among cases: CBZ-DRESS patients
Excerpt: as §1

NC(=O)N1c2ccccc2C=Cc2ccccc21 [CBZ, Carbamazepine]
OR (95% CI) ([1]; HLA-A*01:01): 2.2 (1.1-4.7) | SJS/TEN N (%), allele carriers among cases ([1]; HLA-A*01:01): 14/28 (50.0%) | OR (95% CI) ([1]; HLA-A*02:01): 0.5 (0.2-1.0) | SJS/TEN N (%), allele carriers among cases ([1]; HLA-A*02:01): 11/28 (39.29%) | OR (95% CI) ([1]; HLA-A*24:02): 0.6 (0.2-1.8) | SJS/TEN N (%), allele carriers among cases ([1]; HLA-A*24:02): 3/28 (10.71%) | OR (95% CI) ([1]; HLA-A*26:01): 3.5 (1.3-9.0) | SJS/TEN N (%), allele carriers among cases ([1]; HLA-A*26:01): 5/28 (17.86%) | OR (95% CI) ([1]; HLA-A*31:01): 3.5 (1.2-10.2) and 3.6 (1.2-10.3) | Sensitivity (%) ([1]; HLA-A*31:01 as marker of CBZ-SJS/TEN): 14.29% | OR (95% CI) ([1]; HLA-B*08:01): 1.5 (0.7-3.5) | SJS/TEN N (%), allele carriers among cases ([1]; HLA-B*08:01): 8/28 (28.57%) | OR (95% CI) ([1]; HLA-B*13:02): 1.8 (0.5-6.0) | SJS/TEN N (%), allele carriers among cases ([1]; HLA-B*13:02): 3/28 (10.71%) | OR (95% CI) ([1]; HLA-B*15:02): 44.4 (2.2-879.5) | SJS/TEN N (%), allele carriers among cases ([1]; HLA-B*15:02): 0/28 (0%) | OR (95% CI) ([1]; HLA-B*18:01): 1.1 (0.3-3.8) | SJS/TEN N (%), allele carriers among cases ([1]; HLA-B*18:01): 3/28 (10.71%) | Sensitivity (%) ([1]; HLA-B*38:01 as marker of CBZ-SJS/TEN): 14.29% | OR (95% CI) ([1]; HLA-B*44:02): 0.2 (0.0-1.4) | SJS/TEN N (%), allele carriers among cases ([1]; HLA-B*44:02): 1/28 (3.57%) | OR (95% CI) ([1]; HLA-B*44:03): 1.9 (0.6-5.4) | SJS/TEN N (%), allele carriers among cases ([1]; HLA-B*44:03): 4/28 (14.29%) | Odds ratio (95% CI) ([1]; HLA-B*57:01/A*31:01/B*38:01): 9.3 (4.4-19.9) | SCAR case N (%), allele carriers among cases ([1]; HLA-B*57:01/A*31:01/B*38:01): (60.71%) | Sensitivity (%) ([1]; HLA-B*57:01/A*31:01/B*38:01 as marker of CBZ-SJS/TEN): 60.71% | Odds ratio (95% CI) ([1]; HLA-B*57:01/A*31:01): 8.0 (3.8-16.7) | SCAR case N (%), allele carriers among cases ([1]; HLA-B*57:01/A*31:01): (50.00%) | Sensitivity (%) ([1]; HLA-B*57:01/A*31:01 as marker of CBZ-SJS/TEN): 50.00% | Odds ratio (95% CI) ([1]; HLA-B*57:01/B*38:01): 8.6 (4.1-18.1) | SCAR case N (%), allele carriers among cases ([1]; HLA-B*57:01/B*38:01): (50.00%) | Sensitivity (%) ([1]; HLA-B*57:01/B*38:01 as marker of CBZ-SJS/TEN): 50.00% | Sensitivity (%) ([1]; HLA-B*57:01 as marker of CBZ-SJS/TEN): 39.29% | Odds ratio (95% CI) ([2]; HLA-A*31:01): 49.9 (12.9-193.6) | Sensitivity (%) ([2]; HLA-A*31:01 as marker of CBZ-DRESS): 70.00% | Odds ratio (95% CI) ([2]; HLA-B*38:01): 1.2 (0.1-21.0) | SCAR case N (%), allele carriers among cases ([2]; HLA-B*38:01): (0%) | Sensitivity (%) ([2]; HLA-B*38:01 as marker of CBZ-DRESS): 0% | Odds ratio (95% CI) ([2]; HLA-B*57:01/A*31:01/B*38:01): 14.1 (3.6-54.5) | SCAR case N (%), allele carriers among cases ([2]; HLA-B*57:01/A*31:01/B*38:01): (70.00%) | Sensitivity (%) ([2]; HLA-B*57:01/A*31:01/B*38:01 as marker of CBZ-DRESS): 70.00% | Odds ratio (95% CI) ([2]; HLA-B*57:01/A*31:01): 18.6 (4.8-71.9) | SCAR case N (%), allele carriers among cases ([2]; HLA-B*57:01/A*31:01): (70.00%) | Sensitivity (%) ([2]; HLA-B*57:01/A*31:01 as marker of CBZ-DRESS): 70.00% | Odds ratio (95% CI) ([2]; HLA-B*57:01/B*38:01): 0.4 (0-7.0) | SCAR case N (%), allele carriers among cases ([2]; HLA-B*57:01/B*38:01): (0%) | Sensitivity (%) ([2]; HLA-B*57:01/B*38:01 as marker of CBZ-DRESS): 0% | Odds ratio (95% CI) ([2]; HLA-B*57:01): 0.7 (0.0-11.3) | SCAR case N (%), allele carriers among cases ([2]; HLA-B*57:01): (0%) | Sensitivity (%) ([2]; HLA-B*57:01 as marker of CBZ-DRESS): 0%
